Here are results for 18 compounds from patent publication US11591311B2, “3-oxo-6-heteroaryl-2-phenyl-2,3-dihydropyridazine-4-carboxamides” (priority 2017, dated 2023).

Structures are written as SMILES.

Assay [1] concerns the target T1, AHR (Homo sapiens, UniProt P35869).
T1 construct: U87 glioblastoma cells (ATCC) endogenously expressing AHR; host or cells: U87 glioblastoma cells, stably transfected with DRE-firefly luciferase and renilla reporter constructs
T1 sequence (P35869 11-848): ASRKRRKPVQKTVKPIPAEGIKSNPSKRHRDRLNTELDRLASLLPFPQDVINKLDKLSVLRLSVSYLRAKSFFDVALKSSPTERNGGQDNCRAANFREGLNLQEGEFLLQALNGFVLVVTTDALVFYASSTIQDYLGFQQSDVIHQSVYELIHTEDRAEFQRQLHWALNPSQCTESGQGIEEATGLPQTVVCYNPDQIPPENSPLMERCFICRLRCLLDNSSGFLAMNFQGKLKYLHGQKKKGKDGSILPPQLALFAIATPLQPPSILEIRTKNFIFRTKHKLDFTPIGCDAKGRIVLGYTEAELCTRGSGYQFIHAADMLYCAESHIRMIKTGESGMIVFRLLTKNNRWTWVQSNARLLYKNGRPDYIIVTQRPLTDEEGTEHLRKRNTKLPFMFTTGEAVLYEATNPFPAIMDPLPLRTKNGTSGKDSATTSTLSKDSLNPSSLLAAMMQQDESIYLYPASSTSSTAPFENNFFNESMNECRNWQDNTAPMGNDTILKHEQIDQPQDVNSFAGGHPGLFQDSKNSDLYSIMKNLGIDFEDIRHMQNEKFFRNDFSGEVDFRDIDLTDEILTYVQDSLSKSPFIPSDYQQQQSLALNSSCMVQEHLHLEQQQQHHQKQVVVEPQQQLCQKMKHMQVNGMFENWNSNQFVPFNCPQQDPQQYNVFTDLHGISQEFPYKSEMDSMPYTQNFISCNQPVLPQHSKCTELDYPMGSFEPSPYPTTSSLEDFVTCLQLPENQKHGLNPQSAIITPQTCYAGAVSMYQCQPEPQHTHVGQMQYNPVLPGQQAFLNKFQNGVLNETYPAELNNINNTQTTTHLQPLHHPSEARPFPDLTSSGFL
The assay can be described thus: In vitro assay 3: AHR-regulated CYP1A1 expression in human cell line (U937, qPCR). The note with it: human monocytic U937 cells, CYP1A1 expression induced with 200 μM KA, 6 hours, quantitative PCR; read-out: Assay 3: Hum CYP1A1 Antagonism IC50. The format is cell-based. How it is done:
In Vitro Assay 3: AHR-Regulated CYP1A1 Expression in Human Cell Line
To assess the AHR inhibitory activity of the substances described in this application, the ability thereof to antagonise ligand-induced AHR gene regulation in a dose-dependent manner was quantified. For this purpose, quantitative PCR analysis was used to determine expression of the AHR-regulated gene CYP1A1 in a human monocytic U937 cell line upon stimulation with 200 μM KA in the presence and absence of AHR inhibitor. […] CYP1A1 expression was induced with 200 μM KA (positive control) in the presence or absence of the substances for 6 hours. Human U937 cells were typically incubated with eight different concentrations of the substances (1 nM, 3 nM, 10 nM, 30 nM, 100 nM, 300 nM, 1 μM and 3 μM) and analyzed in duplicate on the same microtitre plate. […] Unstimulated cells were used as the negative control. Taqman probes for human CYP1A1 (Hs01054797_g1) and human HPRT (Hs02800695_m1) were used to analyze fold expression of CYP1A1 of HPRT. Quantitation was performed on a Taqman SDS7900HT.

In assay [2] the target is T1, AHR. The assay can be described thus: In vitro assay 1: AHR-luc transactivation assay, antagonism in human cell line (U87 glioblastoma cells prestimulated with kynurenic acid). The assay is classed as cell-based. The method, then:
Transactivation Assay in Human Cell Line (In Vitro Assays 1 and 2)
Transactivation assays were carried out in U87 glioblastoma cells (ATCC) endogenously expressing AHR. In addition the cells were stably transfected with an AHR inducible firefly luciferase reporter gene construct that carried AHR-binding sites (DRE) in its promoter and a renilla reporter gene construct with constitutively active promoter. Kynurenic acid is an endogenous AHR activating ligand and was used to prestimulate test cells prior to testing the antagonistic properties of compounds.
In Vitro Assay 1: Antagonism in Human Cell Line
Cells in medium (tryptophan free RPMI, 1% FCS, 2 mM Glutamine) supplemented with 150 μM kynurenic acid were grown for 20 hours in absence (negative control) or presence of increasing concentrations of test compounds (typical dilutions: 72 pmol/L, 0.25 nmol/L, 0.89 nmol/L; 3.1 nmol/L, 11 nmol/L, 38 nmol/L, 130 nmol/L, 470 nmol/L, 1.6 μmol/L, 5.7 μmol/L and 20 μmol/L in duplicates). As positive inhibition control cells supplemented with 150 μM kynurenic acid were incubated in presence of 5 μM Staurosporin. Normalization was done by positive and negative controls.
Firefly luciferase and Renilla activity was determined by the DualGlo Luciferase Assay System (Promega, #2920). Renilla activity was used to assess toxic effects of compounds.

Take `COc1ccc(-c2cc(C(=O)N[C@@H](C)CO)c(=O)n(-c3cccc(F)c3)n2)cn1` [Example 21, 2-(3-Fluorophenyl)-N-[(2S)-1-hydroxypropan-2-yl]-6-(6-methoxypyridin-3-yl)-3-oxo-2,3-dihydropyridazine-4-carboxamide]: the half-inhibitory concentration (IC50) – broadly, the concentration needed to halve the response being measured – at AHR [1] worked out at 440 nM; on AHR [2], 128 nM.

In the case of `C[C@H](NC(=O)c1cc(-c2ccc(C(F)(F)F)nc2)nn(-c2cccc(F)c2)c1=O)C(C)(C)O` [Example 9, 2-(3-Fluorophenyl)-N-[(2S)-3-hydroxy-3-methylbutan-2-yl]-3-oxo-6-[6-(trifluoromethyl)pyridin-3-yl]-2,3-dihydropyridazine-4-carboxamide], the IC50 at AHR [1] is 25.3 nM; against AHR [2], 16.2 nM.

As for `CC(C)(O)CNC(=O)c1cc(-c2ccc(C(F)(F)F)nc2)nn(-c2cccc(F)c2)c1=O` [Example 10, 2-(3-Fluorophenyl)-N-(2-hydroxy-2-methylpropyl)-3-oxo-6-[6-(trifluoromethyl)pyridin-3-yl]-2,3-dihydropyridazine-4-carboxamide], the concentration for half-maximal inhibition (IC50) on AHR [1] worked out at 110 nM; against AHR [2], 73.2 nM.

On to `C[C@@H](CO)NC(=O)c1cc(-c2ccc(C(F)(F)F)nc2)nn(-c2cccc(Cl)c2)c1=O` [Example 4, 2-(3-Chlorophenyl)-N-[(2S)-1-hydroxypropan-2-yl]-3-oxo-6-[6-(trifluoromethyl)pyridin-3-yl]-2,3-dihydropyridazine-4-carboxamide], for which the IC50 on AHR [1] was found to be 222 nM; on AHR [2], 128 nM.

Turning to `C[C@@H](NC(=O)c1cc(-c2ccc(C(F)F)nc2)nn(-c2cccc(F)c2)c1=O)C(C)(C)O` [Example 22, 6-[6-(Difluoromethyl)pyridin-3-yl]-2-(3-fluorophenyl)-N-[(2R)-3-hydroxy-3-methylbutan-2-yl]-3-oxo-2,3-dihydropyridazine-4-carboxamide], the figures for the IC50 on AHR [1] and against AHR [2] were 186 nM and 62.6 nM, respectively.

Regarding `C[C@@H](CO)NC(=O)c1cc(-c2ccc(C(F)(F)F)nc2)nn(-c2cc(F)cc(Cl)c2)c1=O` [Example 2, 2-(3-Chloro-5-fluorophenyl)-N-[(2S)-1-hydroxypropan-2-yl]-3-oxo-6-[6-(trifluoromethyl)pyridin-3-yl]-2,3-dihydropyridazine-4-carboxamide], the IC50 at AHR [1] worked out at 36.8 nM; on AHR [2], 23.5 nM.

As to `C[C@@H](CO)NC(=O)c1cc(-c2ccc(C(F)(F)F)nc2)nn(-c2ccccc2)c1=O` [Example 5, N-[(2S)-1-Hydroxypropan-2-yl]-3-oxo-2-phenyl-6-[6-(trifluoromethyl)pyridin-3-yl]-2,3-dihydropyridazine-4-carboxamide], the IC50 at AHR [1] was determined as 281 nM; at AHR [2], 163 nM.

For the compound `C[C@@H](NC(=O)c1cc(-c2ccc(N(C)C)nc2)nn(-c2cccc(F)c2)c1=O)C(C)(C)O` [Example 19, 6-[6-(Dimethylamino)pyridin-3-yl]-2-(3-fluorophenyl)-N-[(2R)-3-hydroxy-3-methylbutan-2-yl]-3-oxo-2,3-dihydropyridazine-4-carboxamide], the figures for the IC50 on AHR [1] and against AHR [2] were 147 nM and 91.9 nM, respectively.

Turning to `C[C@@H](CO)NC(=O)c1cc(-c2ccc(C(F)(F)F)nc2)nn(-c2cccc(F)c2)c1=O` [Example 18, 2-(3-Fluorophenyl)-N-[(2S)-1-hydroxypropan-2-yl]-3-oxo-6-[6-(trifluoromethyl)pyridin-3-yl]-2,3-dihydropyridazine-4-carboxamide], the IC50 on AHR [1] stood at 31.4 nM; at AHR [2] it was 33.8 nM.

On to `O=C(N[C@H]1CCC[C@H]1O)c1cc(-c2ccc(C(F)(F)F)nc2)nn(-c2cccc(F)c2)c1=O` [Example 8, 2-(3-Fluorophenyl)-N-[(1S,2R)-2-hydroxycyclopentyl]-3-oxo-6-[6-(trifluoromethyl)pyridin-3-yl]-2,3-dihydropyridazine-4-carboxamide], for which the values for the IC50 on AHR [1] and on AHR [2] were 10.3 nM and 6.28 nM, respectively.

As for `C[C@@H](CO)NC(=O)c1cc(-c2ccc(C(F)F)nc2)nn(-c2cccc(F)c2)c1=O` [Example 13, 6-[6-(Difluoromethyl)pyridin-3-yl]-2-(3-fluorophenyl)-N-[(2S)-1-hydroxypropan-2-yl]-3-oxo-2,3-dihydropyridazine-4-carboxamide], the IC50 was determined as 198 nM at AHR [1] and 157 nM on AHR [2].

As to `C[C@@H](CO)NC(=O)c1cc(-c2cnc(C(F)(F)F)nc2)nn(-c2cccc(F)c2)c1=O` [Example 11, 2-(3-Fluorophenyl)-N-[(2S)-1-hydroxypropan-2-yl]-3-oxo-6-[2-(trifluoromethyl)pyrimidin-5-yl]-2,3-dihydropyridazine-4-carboxamide], the IC50 is 326 nM on AHR [1] and 495 nM on AHR [2].

In the case of `C[C@@H](NC(=O)c1cc(-c2ccc(C(F)(F)F)nc2)nn(-c2cccc(F)c2)c1=O)C(C)(C)O` [Example 7, 2-(3-Fluorophenyl)-N-[(2R)-3-hydroxy-3-methylbutan-2-yl]-3-oxo-6-[6-(trifluoromethyl)pyridin-3-yl]-2,3-dihydropyridazine-4-carboxamide], the IC50 at AHR [1] came to 48.1 nM; against AHR [2], 25.8 nM.

At AHR [2], `O=C(N[C@H]1COC[C@@H]1O)c1cc(-c2ccc(C(F)F)nc2)nn(-c2cccc(F)c2)c1=O` [Example 38, 6-[6-(Difluoromethyl)pyridin-3-yl]-2-(3-fluorophenyl)-N-[(3S,4R)-4-hydroxytetrahydrofuran-3-yl]-3-oxo-2,3-dihydropyridazine-4-carboxamide] had a half-inhibitory concentration (IC50) of 370 nM.

In the case of `O=C(N[C@H]1COCC[C@@H]1O)c1cc(-c2ccc(C(F)F)nc2)nn(-c2cccc(F)c2)c1=O` [Example 37, 1,5-Anhydro-2,4-dideoxy-2-[({6-[6-(difluoromethyl)pyridin-3-yl]-2-(3-fluorophenyl)-3-oxo-2,3-dihydropyridazin-4-yl}carbonyl)amino]-L-threo-pentitol], the midpoint of inhibition at AHR [2], the IC50, lay at 268 nM.

Regarding `N#C[C@@H](CO)NC(=O)c1cc(-c2ccc(C(F)F)nc2)nn(-c2cccc(F)c2)c1=O` [Example 32, N-[(1S)-1-Cyano-2-hydroxyethyl]-6-[6-(difluoromethyl)pyridin-3-yl]-2-(3-fluorophenyl)-3-oxo-2,3-dihydropyridazine-4-carboxamide], it took 55.9 nM to reach half-maximal inhibition at AHR [2] (IC50).

On to `O=C(N[C@H](CO)C(F)(F)F)c1cc(-c2ccc(C(F)F)nc2)nn(-c2cccc(F)c2)c1=O` [Example 28, 6-[6-(Difluoromethyl)pyridin-3-yl]-2-(3-fluorophenyl)-3-oxo-N-[(2R)-1,1,1-trifluoro-3-hydroxypropan-2-yl]-2,3-dihydropyridazine-4-carboxamide], for which it took 6.65 nM to reach half-maximal inhibition at AHR [2] (IC50).

`O=C(N[C@H]1CCC[C@H]1O)c1cc(-c2ccc(C(F)F)nc2)nn(-c2cccc(F)c2)c1=O` [Example 30, 6-[6-(Difluoromethyl)pyridin-3-yl]-2-(3-fluorophenyl)-N-[(1S,2R)-2-hydroxycyclopentyl]-3-oxo-2,3-dihydropyridazine-4-carboxamide] yielded an IC50 against AHR [2] of 21.8 nM.
